Data taken from paper PMC12028158, “Synthesis and In Vitro Evaluation of the Anticancer Effect of Novel Phosphonium Vindoline Derivatives” (International Journal of Molecular Sciences, 2025).
Where two headings read alike, the source gives them in different places.

Legend:
Assay type in all cases: cell-based
CCRF-CEM = experiment: NCI60 one-dose screen; settings: Homo sapiens, read-out: Growth percent
K-562 [1] = experiment: NCI60 one-dose screen; settings: Homo sapiens
A549/ATCC = experiment: NCI60 one-dose screen; settings: Homo sapiens
NCI-H522 [2] = experiment: NCI60 one-dose screen; settings: Homo sapiens
HCC-2998 = experiment: NCI60 one-dose screen; settings: Homo sapiens
KM12 = experiment: NCI60 one-dose screen; settings: Homo sapiens
SW-620 = experiment: NCI60 one-dose screen; settings: Homo sapiens
SF-539 = experiment: NCI60 one-dose screen; settings: Homo sapiens
SNB-75 = experiment: NCI60 one-dose screen; settings: Homo sapiens
UACC-257 = experiment: NCI60 one-dose screen; settings: Homo sapiens
OVCAR-4 = experiment: NCI60 one-dose screen; settings: Homo sapiens
SK-OV-3 [3] = experiment: NCI60 one-dose screen; settings: Homo sapiens
TK-10 [4] = experiment: NCI60 one-dose screen; settings: Homo sapiens
K-562 [5] = experiment: NCI60 five-dose screen; settings: Homo sapiens, K562
SR = experiment: NCI60 five-dose screen; settings: Homo sapiens
NCI-H322M = experiment: NCI60 five-dose screen; settings: Homo sapiens
NCI-H522 [6] = experiment: NCI60 five-dose screen; settings: Homo sapiens
HCT-116 = experiment: NCI60 five-dose screen; settings: Homo sapiens
SF-268 = experiment: NCI60 five-dose screen; settings: Homo sapiens
SF-295 = experiment: NCI60 five-dose screen; settings: Homo sapiens
U251 = experiment: NCI60 five-dose screen; settings: Homo sapiens
M14 = experiment: NCI60 five-dose screen; settings: Homo sapiens
MDA-MB-435 = experiment: NCI60 five-dose screen; settings: Homo sapiens
IGROV1 = experiment: NCI60 five-dose screen; settings: Homo sapiens, IGROV-1
NCI/ADR-RES = experiment: NCI60 five-dose screen; settings: Homo sapiens
SK-OV-3 [7] = experiment: NCI60 five-dose screen; settings: Homo sapiens
ACHN = experiment: NCI60 five-dose screen; settings: Homo sapiens
SN12C = experiment: NCI60 five-dose screen; settings: Homo sapiens
TK-10 [8] = experiment: NCI60 five-dose screen; settings: Homo sapiens
PC-3 = experiment: NCI60 five-dose screen; settings: Homo sapiens
[9] = test system: Non-small Cell Lung Cancer panel; experiment: NCI60 five-dose screen, panel mean; settings: Homo sapiens, read-out: Mean GI50
Colon Cancer panel = experiment: NCI60 five-dose screen, panel mean; settings: Homo sapiens, read-out: Mean GI50
Melanoma panel = experiment: NCI60 five-dose screen, panel mean; settings: Homo sapiens, read-out: Mean GI50
Prostate Cancer panel = experiment: NCI60 five-dose screen, panel mean; settings: Homo sapiens, read-out: Mean GI50
[10] = NCI-H522, read-out: Growth percent
[11] = HCC 2998, read-out: Growth percent
[12] = SW-620, read-out: Growth percent
[13] = SF-539, read-out: Growth percent
[14] = SNB-75, read-out: Growth percent
[15] = UACC-257, read-out: Growth percent
[16] = OVCAR-4, read-out: Growth percent
[17] = SK-OV-3, read-out: Growth percent
[18] = TK-10, read-out: Growth percent
[19] = Renal Cancer, five-dose, read-out: GI50

Q: `CCC12C=CCN3CC[C@@]4(c5ccc(OC)cc5N(C)[C@H]4[C@@](O)(C(=O)OC)[C@@H]1OC(C)=O)[C@@H]32` (stereo partly drawn) [compound 2, vindoline] was tested. Which activity at 10 µM (CCRF-CEM) did it give?
A: The activity at 10 µM was 96.5%.

Q: And the activity at 10 µM (K-562 [1]; K562, read-out: Growth percent)?
A: The activity at 10 µM was 103%.

Q: What about the activity at 10 µM (A549/ATCC; A549, read-out: Growth percent) of the same compound?
A: The activity at 10 µM was 93.5%.

Q: What about the activity at 10 µM (NCI-H522 [2]; [10]) of the same compound?
A: The activity at 10 µM was 88.5%.

Q: What about the activity at 10 µM (HCC-2998; [11]) of the same compound?
A: The activity at 10 µM was 118%.

Q: And the activity at 10 µM (KM12; KM12, read-out: Growth percent)?
A: Its activity at 10 µM is 102%.

Q: And the activity at 10 µM (SW-620; [12])?
A: The activity at 10 µM was 104%.

Q: And the activity at 10 µM (SF-539; [13])?
A: Its activity at 10 µM is 104%.

Q: What about the activity at 10 µM (SNB-75; [14]) of the same compound?
A: Its activity at 10 µM is 73.1%.

Q: And the activity at 10 µM (UACC-257; [15])?
A: The activity at 10 µM was 98.7%.

Q: What about the activity at 10 µM (OVCAR-4; [16]) of the same compound?
A: Its activity at 10 µM is 98.8%.

Q: And the activity at 10 µM (SK-OV-3 [3]; [17])?
A: The activity at 10 µM was 108%.

Q: What about the activity at 10 µM (TK-10 [4]; [18]) of the same compound?
A: Its activity at 10 µM is 92.1%.

Q: `CCC12C=CCN3CCC4(c5ccc(OC)cc5N(C)C4C(O)(C(=O)OC)C1OC(=O)CCC[P+](c1ccc(C)cc1)(c1ccc(C)cc1)c1ccc(C)cc1)C32` (stereo not drawn) [9a] was tested. Which GI50 (K-562 [5]) did it give?
A: Its GI50 is 291 nM.

Q: And the GI50 (SR)?
A: Its GI50 is 281 nM.

Q: What about the GI50 (NCI-H322M) of the same compound?
A: The GI50 was 785 nM.

Q: And the GI50 (NCI-H522 [6]; NCI-H522)?
A: Its GI50 is 258 nM.

Q: What about the GI50 (HCT-116; HCT-116) of the same compound?
A: Its GI50 is 307 nM.

Q: And the GI50 (SF-268; SF-268)?
A: The GI50 was 343 nM.

Q: What about the GI50 (SF-295; SF-295) of the same compound?
A: Its GI50 is 521 nM.

Q: And the GI50 (U251; U-251)?
A: Its GI50 is 291 nM.

Q: What about the GI50 (M14; M14) of the same compound?
A: The GI50 was 456 nM.

Q: And the GI50 (MDA-MB-435; MDA-MB-435)?
A: Its GI50 is 331 nM.

Q: And the GI50 (IGROV1)?
A: Its GI50 is 383 nM.

Q: What about the GI50 (NCI/ADR-RES) of the same compound?
A: The GI50 was 8870 nM.

Q: What about the GI50 (SK-OV-3 [7]; SK-OV-3) of the same compound?
A: Its GI50 is 290 nM.

Q: And the GI50 (ACHN)?
A: The GI50 was 1610 nM.

Q: What about the GI50 (SN12C) of the same compound?
A: The GI50 was 291 nM.

Q: And the GI50 (TK-10 [8]; TK-10)?
A: The GI50 was 600 nM.

Q: What about the GI50 (PC-3; PC-3) of the same compound?
A: Its GI50 is 310 nM.

Q: And the GI50 [9]?
A: Its GI50 is 410 nM.

Q: What about the GI50 (Colon Cancer panel) of the same compound?
A: The GI50 was 510 nM.

Q: And the GI50 (Melanoma panel)?
A: Its GI50 is 350 nM.

Q: And the GI50 (Prostate Cancer panel)?
A: Its GI50 is 380 nM.

Q: What about the activity at 10 µM (CCRF-CEM) of the same compound?
A: Its activity at 10 µM is -67%.

Q: What about the activity at 10 µM (K-562 [1]; K562, read-out: Growth percent) of the same compound?
A: Its activity at 10 µM is -13.1%.

Q: What about the activity at 10 µM (A549/ATCC; A549, read-out: Growth percent) of the same compound?
A: The activity at 10 µM was -90.3%.

Q: And the activity at 10 µM (NCI-H522 [2]; [10])?
A: The activity at 10 µM was -86.3%.

Q: What about the activity at 10 µM (HCC-2998; [11]) of the same compound?
A: Its activity at 10 µM is -91.4%.

Q: What about the activity at 10 µM (KM12; KM12, read-out: Growth percent) of the same compound?
A: The activity at 10 µM was -76.1%.

Q: What about the activity at 10 µM (SW-620; [12]) of the same compound?
A: The activity at 10 µM was -85.2%.

Q: What about the activity at 10 µM (SF-539; [13]) of the same compound?
A: Its activity at 10 µM is -96.6%.

Q: What about the activity at 10 µM (SNB-75; [14]) of the same compound?
A: The activity at 10 µM was -61.2%.

Q: And the activity at 10 µM (UACC-257; [15])?
A: The activity at 10 µM was -92.7%.

Q: What about the activity at 10 µM (OVCAR-4; [16]) of the same compound?
A: Its activity at 10 µM is -73.5%.

Q: What about the activity at 10 µM (SK-OV-3 [3]; [17]) of the same compound?
A: The activity at 10 µM was -81%.

Q: And the activity at 10 µM (TK-10 [4]; [18])?
A: Its activity at 10 µM is -88.5%.

Q: Which results are given for `CC[C@]12C=CCN3CC[C@@]4(c5ccc(OC)cc5N(C)[C@H]4[C@@](O)(C(=O)OC)[C@@H]1OC(=O)CCC[P+](c1ccc(OC)cc1)(c1ccc(OC)cc1)c1ccc(OC)cc1)[C@@H]32` [9b]?
A: GI50 (K-562 [5]; K-562, Leukemia, five-dose, read-out: GI50): 556 nM; GI50 (SR; Leukemia, five-dose, read-out: GI50): 389 nM; GI50 (NCI-H322M; Non-small Cell Lung Cancer, five-dose, read-out: GI50): 2860 nM; GI50 (NCI-H522 [6]; NCI-H522, Non-small Cell Lung Cancer, five-dose, read-out: GI50): 391 nM; GI50 (HCT-116; HCT-116, Colon Cancer, five-dose, read-out: GI50): 712 nM; GI50 (SF-268; SF-268, CNS Cancer, five-dose, read-out: GI50): 1210 nM; GI50 (SF-295; SF-295, CNS Cancer, five-dose, read-out: GI50): 1920 nM; GI50 (U251; U-251, U251, CNS Cancer, five-dose, read-out: GI50): 360 nM; GI50 (M14; M14, Melanoma, five-dose, read-out: GI50): 1120 nM; GI50 (MDA-MB-435; MDA-MB-435, Melanoma, five-dose, read-out: GI50): 480 nM; GI50 (IGROV1; IGROV1, Ovarian Cancer, five-dose, read-out: GI50): 533 nM; GI50 (NCI/ADR-RES; Ovarian Cancer, five-dose, read-out: GI50): 18100 nM; GI50 (SK-OV-3 [7]; SK-OV-3, Ovarian Cancer, five-dose, read-out: GI50): 1020 nM; GI50 (ACHN; [19]): 458 nM; GI50 (SN12C; [19]): 672 nM; GI50 (TK-10 [8]; TK-10, Renal Cancer, five-dose, read-out: GI50): 1510 nM; GI50 (PC-3; PC-3, Prostate Cancer, five-dose, read-out: GI50): 470 nM; GI50 ([9]; mean over Non-small Cell Lung Cancer panel): 1090 nM; GI50 (Colon Cancer panel; mean over Colon Cancer panel): 980 nM; GI50 (Melanoma panel; mean over Melanoma panel): 760 nM; GI50 (Prostate Cancer panel; mean over Prostate Cancer panel): 710 nM; activity at 10 µM (CCRF-CEM; 10 μM, one-dose): -71.2%; activity at 10 µM (K-562 [1]; K562, K-562, 10 μM, one-dose, read-out: Growth percent): -1.75%; activity at 10 µM (A549/ATCC; A549/ATCC, 10 μM, one-dose, read-out: Growth percent): -91.4%; activity at 10 µM (NCI-H522 [2]; NCI-H522, 10 μM, one-dose, read-out: Growth percent): -89.4%; activity at 10 µM (HCC-2998; HCC-2998, 10 μM, one-dose, read-out: Growth percent): -89.7%; activity at 10 µM (KM12; KM12, 10 μM, one-dose, read-out: Growth percent): -65.3%; activity at 10 µM (SW-620; SW-620, 10 μM, one-dose, read-out: Growth percent): -82.4%; activity at 10 µM (SF-539; SF-539, 10 μM, one-dose, read-out: Growth percent): -98.9%; activity at 10 µM (SNB-75; SNB-75, 10 μM, one-dose, read-out: Growth percent): -34%; activity at 10 µM (UACC-257; UACC-257, 10 μM, one-dose, read-out: Growth percent): -93.5%; activity at 10 µM (OVCAR-4; OVCAR-4, 10 μM, one-dose, read-out: Growth percent): -75.3%; activity at 10 µM (SK-OV-3 [3]; SK-OV-3, 10 μM, one-dose, read-out: Growth percent): -85.1%; activity at 10 µM (TK-10 [4]; TK-10, 10 μM, one-dose, read-out: Growth percent): -90.7%
